A melting point compilation (Tetko et al.; mined from patent text by program, amines drawn as free bases though some values may be those of a salt)

Structure (SMILES)	melting point [°C]
CCn1ncnc1COc1nn2c(-c3ccccc3F)nncc2c1-c1ccccc1F	164
COC(=O)c1ccc(CC(C)NCC(O)c2ccc(O)c(CO)c2)cc1 (configuration not stated)	118 to 120
O=C(O)CCc1c(C(=O)O)[nH]c2cc(Br)cc(Br)c12	259
C[C@H]1C[C@@H](NC(=O)C(F)(F)F)CC(O)O1 (some centres not stated)	159 to 160
O=c1[nH]c(=O)c2c(N3CCCCC3)cccc2[nH]1	> 280
CSc1nccn1CC(=O)NC1C(=O)N2C(C(=O)O)=C(CSc3nnc(C)s3)CSC12 (configuration not stated)	220
CCCCCCCCCCCC(=O)NCCOCCn1c(CCOC)nc2c(N)nc3ccccc3c21	80 to 83
O=[N+]([O-])c1c(Cl)nc(C2CC2)nc1Cl	50 to 52
N#CSCC(Br)=C(Br)CSC#N	180
c1ccc(-c2ncc(-c3ncco3)cn2)cc1	175 to 177
CCOC(=O)CS(=O)CCNC(=O)OCC (configuration not stated)	73.8 to 77
CCCCCCCCC1(CCCCCCCC)c2cc([N+](=O)[O-])ccc2-c2ccc([N+](=O)[O-])cc21	69 to 73
CC(CCC(=O)NC(C)(C)C)C1CC=C2C3=C(CCC21C)C1(C)CCC(O)C(C)(C)C1CC3 (configuration not stated)	171 to 176
C=CCC(C(=O)NCC#CCN(C)C)(c1ccccc1)c1ccccc1	107 to 109
CC1(C)CCC(C)(C)c2cc([N+](=O)[O-])c(O)cc21	139
O=C(NC1CCN(C(=O)NCCC2(C(=O)NCC(F)(F)F)c3ccccc3-c3ccccc32)CC1)c1ccccc1	220 to 222
O=Cc1cccc2ncc(C3CCCCC3)cc12	94 to 95
CNC(=NC#N)NCCSCc1ccc(CN)o1	80 to 82
O=c1[nH]cnn1-c1ccc(C(F)(F)F)cc1	221
c1cc(-c2ccc(OCCCN3CCCC3)cc2)ccc1OCCCN1CCCCC1	105 to 108
O=C(N[C@@H](CO)C(=O)NCCCCOC1CCCCC1)c1ccc(C(=O)c2cccnc2)cc1	55 to 61
CON=C(C(=O)O)c1cc2sccc2s1	116 to 117
O=C(Nc1cccc2c1C(=O)c1c-2n[nH]c1-c1ccc(C(=O)NN2CCCC2)s1)NN1CCOCC1	213 to 215
CC(C)(C)c1ccc(S(=O)(=O)C[N+](=O)[O-])cc1	90 to 91
Fc1cccc(Cl)c1-c1c(Cl)cc(-c2ncccn2)nc1Cl	147
CCCCCCCC(CCCCCC)CCOC(=O)c1ccccc1N=NN1CCOCC1 (configuration not stated)	40 to 42

Structure (SMILES)	melting point [°C]
CNC(=O)C1(Cl)CC1(Cl)Cl (configuration not stated)	71 to 72
CC(C)(C)OC(=O)CN(CBr)C(=O)c1ccccc1	98 to 102
O=C(NC(=O)c1cccs1)NC1CCN(Cc2c[nH]c3ccccc23)CC1	231 to 232
O=C(CCCCNC(=O)c1cn2c3c(cccc13)CCC2)NOCc1ccccc1	154 to 155
CCCCNC(=O)C=C(C)C=CC=C(C)C=Cc1c(C)cc(OC)c(C)c1C	178
O=C1c2cc([N+](=O)[O-])ccc2OCN1CCO[N+](=O)[O-]	97 to 99
CNc1cc(Cl)cc(NC)c1[N+](=O)[O-]	193
CCC(=O)Nc1cc(C2=NNC(=O)CC2C)ccc1N1CCOCC1 (configuration not stated)	193 to 196
Cc1cc(CCCCCOc2ccc(-c3ccco3)cc2)on1	86 to 88
CNS(=O)(=O)C(=O)CCOc1cc(Oc2nn(C)c(C(F)(F)F)c2Cl)ccc1[N+](=O)[O-]	170 to 172
Clc1cccc(OC2CCNc3ncc(-c4ccc(N5CCOCC5)cc4)cc32)c1 (configuration not stated)	124 to 126
CCN(CC)C(=O)c1ccc(C(c2ccccc2)C2CCNCC2)cc1 (configuration not stated)	160 to 162
C=C(C)C(=O)[C@@H]1CCCC[C@H]1C(=O)OC(c1ccccc1)c1ccccc1 (relative stereo)	90 to 95
CC(C)N=C(N)Nc1ccnc(OCCCO)n1	181 to 183
CCCCc1nc2cnc3cc(C)ccc3c2o1	52 to 55
N#CN=c1ncccn1Cc1ccc(Cl)nc1	218 to 220
CC(C)(C)OC(=O)N(N)Cc1ccc(-c2ccccc2)cc1	84 to 85
N#CC(c1ccccn1)C1CCCCC1O (configuration not stated)	110 to 112
CCN(C(=O)OCc1ccccc1)c1cc(Cl)c2c(c1)C(c1ccccc1F)=NC(C)(C)C(=O)N2C	150 to 151
COc1ccnc(C#N)c1OC	133
CNC(=S)Nc1c(C)cccc1N1CCOCC1	182 to 183
O=C(CC(c1ccccc1)c1ccccc1)N1CCC(N2Cc3ccccc3C2=O)CC1	166 to 169
CN1CCCC1=NC(=S)Nc1ccccc1	142 to 144
Brc1cc(C#Cc2ccccc2)c(Br)cc1C#Cc1ccccc1	155 to 158
CCCCn1cc(C(=O)C(=O)O)c2cc(-c3cccc(OC)c3)ccc21	108 to 109
O=C(O)C1CSC(c2ccncc2)N1 (configuration not stated)	171 to 173

Next, values leading:

melting point [°C]	Structure (SMILES)
236 to 238	Cc1nc2c(N)nc3ccccc3c2n1CCCNS(C)(=O)=O
97 to 98	CC(C)=CC(=O)N1CC(c2ccccc2)c2ccccc21 (configuration not stated)
264 to 268	COc1cccc(Cc2ccc(-c3cnn4c(O)ncnc34)cc2)c1
80.5 to 81.5	CC1CC(=O)c2cc(OCc3ccccc3)cnc2C1 (configuration not stated)
117 to 119	CCCOCCOc1ccc(-c2ccc3c(c2)C=C(C(=O)OC)CCN3c2ccccc2)cc1
277 to 279	O=C(O)CN1C(=O)C(=Cc2c3ccccc3cc3ccccc23)SC1=S
130	O=C1N(c2cc(Cl)nc(Cl)c2)C(=O)[C@@]2(Cc3ccc(OC(F)(F)F)cc3)C[C@H](n3cccc3)CN12
207 to 208	CC(C)C(=O)NCCCC1COCc2nc3c(N)nc4ccccc4c3n21 (configuration not stated)
179 to 181	Cc1ccccc1-c1noc2c(Cl)c(OCC(=O)O)ccc12
49.5 to 51.2	COc1ccc(NC(=O)c2ccccc2OC)cc1
147 to 151	COC(=O)c1ccc(-c2nnc(-c3ccc(C(C)C)cc3)s2)cc1
145 to 147	COc1ccccc1[C@H](c1cccc2ccccc12)[C@@](C)(C#N)C(=O)N1CCN(c2ccccc2Cl)CC1
87 to 92	Cc1nn(C)c(N)c1C(=O)Nc1cccc(Cl)c1
239 to 240	Cc1nc2c(N)nc3cccnc3c2n1Cc1cc(-c2ccc(F)cc2)no1
136	CCCCC(CC)C(=O)Nc1ccc2cnn(Cc3ccc(C(=O)OC)cc3OC)c2c1 (configuration not stated)
153 to 154	CCN1CN2C(=N1)C(c1ccccc1Cl)=NCc1ccsc12
178 to 180	CCOC(=O)C1C(=O)Nc2ccccc2C1c1ccccc1 (configuration not stated)
142 to 145	COc1ccc(O)c(C2(CO)C(=O)N(CO)c3cccc(Br)c32)n1 (configuration not stated)
232 to 234	Cc1cc(C(=O)N2Cc3cccn3Cc3ccccc32)ccc1N
68 to 71	CCOC(=N)N1Cc2ccccc2-c2ccccc2C1
116 to 118	CCn1ncc(C(=O)c2ccc(S(C)(=O)=O)c(COC)c2C)c1O
233 to 236	CNc1nc(NCc2ccc(NC(=O)c3ccc(Cl)nc3)cc2)c2c(C)cccc2n1
268 to 270	COc1cc2nc(N)nc(-c3ccc(O)c(F)c3)c2cc1OC
106 to 108	CC(=O)c1ccc2c(c1)C(C)(C)c1cccnc1O2
160	COc1ccc(N2CCN(c3ccc([N+](=O)[O-])cc3)CC2)nc1

melting point [°C]	Structure (SMILES)
160 to 165	COc1ccccc1C1(O)C(O)CC(C)(C)C2CN(C(=O)Cc3c[nH]c4ccccc34)CC21 (configuration not stated)
191 to 193	OCCOc1nccc(-c2c(-c3ccc(F)cc3)ncn2C2CCC(O)CC2)n1 (configuration not stated)
272	Cn1nnc2c(N3CCOCC3)nc(-c3ccc(NC(=O)Nc4cccnc4)cc3)nc21
153 to 155	Cc1c(OCC(F)(F)F)ccnc1CSc1nc2ccccc2n1NC(=O)OC(C)(C)C
129 to 131	Cc1cccc(C(=O)O)c1OC1CCOC1=O (configuration not stated)
90 to 93	C=CCOc1ccc(Cl)c2oc(Cc3ccc(OC)cc3)c(C)c12
96 to 102	CCOC(=O)C(=CNc1ccc(F)c(Cl)c1)C(=O)c1ccccc1Cl
119 to 120	CCOC(=O)c1c(C)cc2c(c1C)c(=O)n(-c1ccccc1C(F)(F)F)c(=O)n2CCN1CCN(C(=O)C=Cc2ccccc2)CC1
211 to 212	O=c1c(-c2ccccc2)c[nH]n1-c1cccc(Cl)c1
229 to 230	C=CC(=O)Nc1cccc2c(=O)c(C)c(-c3ccccc3)oc12
156 to 157	COc1ccc(CC(=O)NC(NC(=NC#N)Nc2ccccc2C)C(C)(C)C)cc1OC (configuration not stated)
246 to 256	COc1ccccc1Cc1ccc(-c2cnn3c(O)ncnc23)cc1
231 to 232	Cc1ccc2c(c1)NC(=O)c1ccccc1O2
77 to 78	O=C(O)CCCSc1ccccc1O
225 to 227	O=C(O)Cn1c(=O)n(Cc2ccc(Cl)c(Cl)c2)c(=O)c2ccccc21
108 to 112	O=C(O)C1Cc2ccccc2N1S(=O)(=O)c1ccc(-c2cccc(C(F)(F)F)c2)cc1 (configuration not stated)
228	Cc1ccc(S(=O)(=O)Cc2c(C(=O)O)nn(-c3ccccc3)c2O)cc1
99 to 101	O=C(C=Cc1ccccc1)Oc1ccc2ccccc2c1
142 to 146	COc1ccc(Oc2cc3nc(-c4ccccc4)oc3cc2[N+](=O)[O-])cc1
125 to 127	CCCN(CCC)C(=O)Cn1c(-c2cccc(Br)c2)nc2cccnc21
153 to 154	Cc1nc(N2CCN(Cc3ccc(C(F)(F)F)cc3)C2=O)sc1-c1ccno1
189 to 190	CC(C)(C)c1cc(CCc2ccccc2NC(=O)NCc2ccccn2)cc(C(C)(C)C)c1O
96 to 98	COc1ccc(COCC(O)Cn2ccnc2)cc1 (configuration not stated)
151 to 152	CC(C)(C)c1csc(-c2cc3cc(Cn4c(C(N)=O)cc5ccccc54)ccc3o2)n1
244 to 246	CCc1c(-c2ccc(OCc3ccccc3)cc2)c2cc(C(=O)O)c3c(NC(C)=O)ccc1n23
